Laboratory results from patent US7189751B2, “Oxa(thia)zolidine compounds, process for preparation thereof and anti-inflammatory agents” (Nippon Soda Co., Ltd., priority 2001, dated 2007).

System: Mouse Delayed Contact Dermatitis Induced by Picryl Chloride
Experiment: Mouse delayed contact dermatitis induced by picryl chloride
Type: in vivo
Method: Pharmacological Test Example 3 Mouse Delayed Contact Dermatitis Induced by Picryl Chloride
This pharmacological test was carried out referring to the method of Asherson, G. L. & Ptak, W. (Immunology, 15: 405–416 (1968).) and the method of Jun Hiroi (Folia Pharmacology of Japan, 86: 233–239 (1985).). More specifically, hairs on the abdomen of an ICR-strain male mouse were removed using an electric clipper and an electric shaver. Then, 0.1 mL of 7% ether solution of picryl chloride (Tokyo Kasei Kogyo Co., Ltd., C 0307) was applied onto the abdomen for sensitization. On the sixth day after the sensitization, 20 μL/ear of 1% olive oil solution of picryl chloride was topically applied to the anterior and posterior surfaces of both ears of the mouse to induce contact dermatitis (first induction). Before and 24 hours after the induction, the thicknesses of the particular parts on the both ears were measured three times, respectively, using a digimatic micrometer (Mitsutoyo Co., Ltd.) to work out the average values. Ear edema of the both ears was respectively determined by subtracting the average thickness of the each ear before the induction from that on 24 hours after the induction, so that a grouping was carried out to separate the appropriate individuals. On the fourth day after the first induction, the hairs on the abdomen were removed again, and 0.1 mL of 7% ethanol solution of picryl chloride was applied thereto for additional sensitization. The contact dermatitis for evaluating activity was induced by re-applying 20 μL/ear of 1% olive oil solution of picryl chloride to the anterior and posterior surfaces of both ears (second induction) on the seventh day after the additional sensitization (on the […] after the first sensitization). The activity of each compound of the present invention was evaluated as the inhibition on the contact dermatitis as compared with that of the vehicle applied control. That is, the thicknesses of the particular portions of the both ears were measured respectively three times with a digimatic micrometer to work out the mean values before, 24 hours and 48 hours after the second induction. Ear swelling was determined by subtracting the ear thickness before the second induction from that on 24 hours and 48 hours after the second induction, respectively. Topical application activity was evaluated by applying 25 μL of the acetone solution of the compound of the present invention similarly to the anterior and posterior surfaces of the right ear one hour before and 16 hours after the second induction. As the positive control, 0.02 mg/20 μL of acetone solution of Dexamethasone (hereinafter referred to as DEX, Wako Pure Chemical Industries Ltd., 047-18863) was applied similarly as for the compound of the present invention. With respect to the inhibitory activity in topical application tests, the topical activity was determined by the inhibition of the applied right ear edema, and the translocation and distribution property was determined by the activity onto the swelling of non-treated left ear. Oral administration activity was evaluated by administrating 0.5% methyl cellulose suspension of the compound of the present invention forcibly and perorally to the mouse an hour before and 16 hours after the second induction. As the positive control, 20 mg/kg of Prednisolone (Sigma Chemical Co., P 6004) suspension was administrated similarly as for the compounds of the present invention. […] As the examples, the body weight changes in the mice for 48 hours after the second induction when they were administrated with the compounds shown in Table 5 are shown in Table 6.

CCOC(=O)C(=C1N[C@@H](C)[C@H](c2ccc(Cl)cc2)S1)[N+](=O)[O-] (relative stereo) [Compound 2-29, Trans-5-(4-chlorophenyl)-4-methyl-2-(1-ethoxycarbonyl-1-nitromethylene)-thiazolidine]
Change in body weight 48 hours after induction (Mean ± S.E.) (1.5 mg/ear × 2, vehicle control −0.45 ± 0.20): -0.06 ± 0.15 g
Change in body weight 48 hours after induction (Mean ± S.E.) (%) (1.5 mg/ear × 2, vehicle control −1.29 ± 0.59): −0.20 ± 0.48%
Ear swelling after 24 hours, Right (Applied) (Mean ± S.E., mm) (topical 1.5 mg/25 μL/ear × 2, vehicle control 0.299 ± 0.006): 0.261 ± 0.012 mm
Ear swelling after 24 hours, Left (Not applied) (Mean ± S.E., mm) (topical 1.5 mg/25 μL/ear × 2 on right ear, vehicle control 0.284 ± 0.008): 0.243 ± 0.020 mm
